Measured values reported in US20160256472A1, “COMPOSITIONS AND METHODS OF ADMINISTERING SAME” (PALMAYA PTY LTD, priority 2013, published 2016).
“Also recorded” adds a separate entry of the source.

How the values were obtained:
[1] = system: craving and craving anxiety for smoking, alcohol or drug use; assay: Pilot study case reports: craving and craving anxiety after rapid (nasal/sublingual) delivery of micro-doses; format: in vivo, human; conditions: Example 7: bupropion 250 micrograms added, nasal delivery
Description: About 40-50 minutes later the craving anxiety for smoking started to climb.
Their craving for smoking and alcohol were linked making smoking more severe during times of alcohol use.
This profound change depends on them giving themself one or two doses before getting out of bed in the morning as this is the most severe craving in the day.
They averaged 20 doses per day.

[2] = in vivo; cited from earlier work
[3] = cited from earlier work
[4] = Oral naltrexone absorption and presence in blood stream; conditions: standard oral administration, one off dose of 50 mg per day
Description: As with all addictions, craving anxiety builds and is then reduced at the time of drug use or when the habit is repeated. The cycle then repeats itself. Craving may present itself with anxiety or in some cases presents itself where the individual places himself in a risky situation or searches for the substance or opportunity for the substance or event.

[5] = system: smoking addiction; conditions: Cochrane review; cited from earlier work
[6] = oral dosage form, 50 mg per day; cited from earlier work

With `CC(NC(C)(C)C)C(=O)c1cccc(Cl)c1` (stereo not shown) [bupropion] the “effect of bupropion on the effectiveness of the flumazenil/naltrexone combination” value [1] was “maximise the effectiveness”.

In the case of `CCOC(=O)c1ncn2c1CN(C)C(=O)c1cc(F)ccc1-2` [flumazenil], the half-life [2] is listed as “less than one”, the side effects ([3]; intravenous flumazenil, literature) is listed as “panic attacks or fitting” and the safe dose ([3]; intravenous injection, recorded by Mims) is listed as “up to 100 mg”.

For `O=C1CC[C@@]2(O)[C@H]3Cc4ccc(O)c5c4[C@@]2(CCN3CC2CC2)[C@H]1O5` [naltrexone], the “time naltrexone is undetectable in the blood stream” value [4] is given as 18 hours a day, the “efficacy in smoking addiction / smoking cessation” value [5] is given as “does not give any evidence of smoking cessation; also recorded: not effective” and the “time after administration at which oral naltrexone disappears from the blood stream” value [6] is given as “six”.
